Source: patent publication US20190249134A1, “CELL CULTURES AND USE THEREOF” (Boston Biomedical, Inc., priority 2016, published 2019)

Key:
[1] = system: A549 cells; test: Sphere formation assay in alginate-based 3D cell culture, IC50 compared with clonogenic assay in conventional 2D culture; conditions: for IC50 in the alginate-based 3D cell culture relative to the conventional 2D culture: 3D sphere formation vs 2D clonogenic assay, FIG. 4A; for fold change resistance (IC50 in alginate-based 3D cell culture divided by IC50 in conventional 2D culture): FIG. 4B
Excerpt: Without limiting the scope of the present disclosure or appended claims with any particular theory or hypothesis, since the stemness is associated with a resistance to chemotherapy, cells cultured in an alginate-based 3D cell culture may be more resistant to chemotherapy drugs and more sensitive to stemness-targeting drugs than cells cultured in traditional 2D cultures. To evaluate the response of cells to drugs, the IC50 values of cells in both the alginate-based 3D and the conventional 2D cell cultures were determined. FIG. 4A summarizes the IC50 of the CSC-targeting therapies (BBI-608, BBI-503), chemotherapies (doxorubicin and gemcitabine), and a targeted therapy (sunitinib) with respect to A549 cells in the alginate-based 3D cell culture and the traditional 2D culture. […] To compare the effect of culturing cells in the alginate-based 3D and the conventional 2D cell cultures on IC50, the fold change in resistance can be calculated by obtaining the ratio of IC50 value in the alginate-based 3D cell culture to the IC50 value in the conventional 2D culture.
Into each well of a flat bottom-96 well plate, 30 μL suspension of the cells in alginate solution was dispensed. 9 μL of crosslinking solution was then added to each well to form alginate gels and thus embed A549 cells into the gel matrix. The plates were then incubated for 15 minutes at 37° C. to ensure a complete gelling of alginate, and then cultured in Prime XV media overnight. After the overnight culture, the cells were treated with various concentrations of BBI-608, BBI-503, sunitinib, doxorubicin, or gemcitabine for 24 h. The plates were then washed and cultured in fresh media for an additional 11 days before imaging the cultures with Celigo Imaging Cytometer (Nexcelcom Bioscience, Lawrence, Mass.). The number of spheres were counted, and used to calculate the IC50 values using Prism 5 (GraphPad).
A549 cells were plated in 6-well plates (1×10^3 A549 cells/well). After an overnight incubation in DMEM media, the cells were treated with various concentrations of BBI-608 for 24h, or BBI-503, sunitinib, doxorubicin, and gemcitabine for 72 hours. The plates were washed, and cultured in fresh media for an additional 6 days before staining the colonies with Giemsa Stain (Sigma, St. Louis, Mo.). The colonies were imaged using a ChemiDoc™ MP Imaging System (BioRad), and the number of colonies were counted using ImageJ (National Institutes of Health, Bethsada, Md.), and the IC50 values calculated using Prism 5.

[2] = system: A549 cellular spheroids; test: Efficacy on pre-formed cellular spheroids in alginate-based 3D cell culture (CellTox dead stain); conditions: pre-formed A549 spheroids (11 days), concentrations near IC50 values, 7 days after drug treatment; FIG. 5
Experimental: To evaluate the efficacy of the drugs in diffusion-limited environments, A549 cells were embedded and cultured for 11 days before any drug treatment (BBI-608, BBI-503, gemcitabine, or doxorubicin). Spheroids of A549 cells were pre-formed from single cells embedded in an alginate-based 3D cell culture for 11 days. The pre-formed spheroids were treated with drugs (0.3 μM BBI-608, 2.5 μM BBI-503, 30 μM sunitinib, 4 μM doxorubicin, 0.5 μM gemcitabine) and incubated with the dead stain CellTox Dye. Micrographs were taken 7 days after the drug treatments.
In a 6-well plate, A549 cells were embedded in an alginate-based 3D cell culture and cultured for 11 days before addition of BBI-608, BBI-503, sunitinib, doxorubicin, and gemcitabine. Cells were cultured for an additional 7 days before staining them with CellTox™ Green Dye (Promega) to stain the dead cells. Images of the stained samples were taken using an EVOS fluorescence microscope (Life Technologies, Carlsbad, Calif.).

Row | IC50 in the alginate-based 3D cell culture relative to the conventional 2D culture [1] | fold change resistance (IC50 in alginate-based 3D cell culture divided by IC50 in conventional 2D culture) [1] | SMILES | cell death, share of spheroids [2]
1 | greater | – | Nc1ccn([C@@H]2O[C@H](CO)[C@@H](O)C2(F)F)c(=O)n1 [gemcitabine, reference compound] | –
2 | lower | less than single-fold | CCN(CC)CCNC(=O)c1c(C)[nH]c(/C=C2\C(=O)Nc3ccc(-c4csc(-c5ccccc5)n4)cc32)c1C [BBI-503] | about 90%
3 | lower | less than single-fold | CC(=O)c1cc2c(o1)C(=O)c1ccccc1C2=O [BBI-608, 2-acetylnaphtho[2,3-b]furan-4,9-dione] | about 90%
4 | greater | – | COc1cccc2c1C(=O)c1c(O)c3c(c(O)c1C2=O)C[C@@](O)(C(=O)CO)C[C@@H]3O[C@H]1C[C@H](N)[C@H](O)[C@H](C)O1 [doxorubicin, reference compound] | –
